We go through three molecules from patent US20190313934A1, “DEVICE AND SYSTEM FOR MONITORING AND TREATING MUSCLE TENSION-RELATED MEDICAL CONDITIONS” (Biotrak Health, Inc., priority 2016, published 2019).

Assay [1] can be described thus: Evaluation of analgesics, alone or with the prototype Halo system, on a human subject with recurring headaches. Type of assay: in vivo. To be noted: one subject. The method, then: The subject was a person in New York City with a history of recurring headaches. Tests were conducted in three stages between December 2016 and March 2017. In the first stage the subject used various over-the-counter analgesics at recommended dosages to manage headache symptoms (Sessions 1 and 2). Conditions were self-assessed prior to drug administration according to a standard headache scale, and then qualitatively reassessed for the extent of relief. In the second stage, the subject took an analgesic at the same time of using a prototype Halo™ system for 5 min (Session 3). In the third stage the subject used the prototype Halo™ system alone for a duration of 10 min on three occasions (Sessions 4-6).

For assay [2] the following is noted: diazepam combined with EMG biofeedback; chronic anxious patients; cited from earlier work.

As for `CC(=O)Oc1ccccc1C(=O)O` [aspirin], the Relief result in assay [1] (over-the-counter analgesic alone at recommended dosage, qualitative self-assessment of headache relief) is listed as “Moderate”.
For `CN1C(=O)CN=C(c2ccccc2)c2cc(Cl)ccc21` [diazepam], in assay [2], the “Effect on muscular tension” value is listed as “effectively reduced muscular tension”.
Consider `COc1ccc2cc([C@H](C)C(=O)O)ccc2c1` [naproxen], for which the Relief entry in assay [1] (analgesic taken at the same time as using prototype Halo system for 5 min, qualitative self-assessment) is on record as “Complete”.
